Consider 51 molecules from US8759386B2, “Pyrazole compounds as CRTH2 antagonists” (Boehringer Ingelheim International GmbH, priority 2011, dated 2014).

The target of this assay is human CRTH2 receptor (Homo sapiens (Human), UniProt Q9Y5Y4). Kind of assay: CRTH2 receptor radioligand binding assay (SPA, [3H]-PGD2, CHO-K1-hCRTH2 cell membranes). Particulars: displacement of [3H]-PGD2 from CHO-K1-hCRTH2 membranes. The protocol: Preparation of Human CRTH2 Receptor Membranes and Radioligand Binding Assay
The binding of CRTH2 antagonists is determined using membranes prepared from Chinese hamster ovary cells (CHO-K1 cells) transfected with the human CRTH2 receptor (CHO-K1-hCRTH2 cells, Perkin Elmer, Cat No ES-561-C). To produce cell membranes the CHO-K1-hCRTH2 cells are cultured in suspension in CHO SFMII medium supplemented with 400 μg/mL G418. The cells are harvested by centrifugation at 300 g for 10 min at room temperature. The cell pellet is resuspended in Phosphate Buffer Saline (PBS) including a protease inhibitor mix (Complete, Roche) and adjusted to a concentration of 10E7 cells/mL. The CHO-K1-hCRTH2 cells are disrupted by nitrogen […] to obtain the membrane preparation. Cell debris is removed by centrifugation (500 g at 4° C., 30 min) and the supernatant is transferred into fresh tubes followed by a second centrifugation at 40000 g for 1 hour at 4° C. to sediment the membranes. The membranes are suspended in SPA incubation buffer (50 mM Tris HCl, 10 mM MgCl2, 150 mM NaCl, 1 mM EDTA, pH 7.4) without bovine serum albumin, homogenized by passing through a single use needle (Terumo, 23G×1″), and stored in aliquots at −80° C.
The CRTH2 receptor binding assay is performed in a scintillation proximity assay (SPA) format with the radioligand [^3H]-PGD2 (Perkin Elmer, NET616000MC). CHO-K1-hCRTH2 cell membranes are again homogenized by passing through a single use needle (Terumo, 23G×1″) and diluted in SPA incubation buffer in suitable concentrations (0.5-10 μg protein/well). The SPA assay is set up in 96 well microtiter plates (Perkin Elmer, Cat No. 6005040) in SPA incubation buffer with a final volume of 200 μL per well and final concentration of 50 mM Tris-HCl, 10 mM MgCl2, 150 mM NaCl, 1 mM EDTA pH 7.4, 0.1% bovine serum albumin). The SPA assay mixture contains 60 μl of the membrane suspension, 80 μL of Wheat Germ Agglutinin coated PVT beads (GE Healthcare, RPNQ-0001, 0.3 mg/well), 40 μL of [^3H]-PGD2 diluted in SPA buffer to a final concentration of 1 nM (50 000 dpm) and 20 μL of the test compound (dissolved in dimethylsulfoxide). The SPA assay mixture is incubated for 3 h at room temperature. Bound radioactivity is determined with a scintillation counter (Micro Beta Trilux, Wallac). The binding of [^3H]-PGD2 to CHO-K1-hCRTH2 cell membranes is determined in the absence (total binding, Bo) and presence (non-specific binding, NSB) of unlabelled PGD2 (1 μM, Cayman Chemical, Cat No 12010) or a reference CRTH2 antagonist (10 μM CAY10471, Cayman Chemical, Cat No 10006735). Determination of the affinity of a test compound is calculated by subtraction of the non-specific binding (NSB) from the total binding (Bo) or the binding in the presence of the test compound (B) at a given compound concentration. The NSB value is set to 100% inhibition. The Bo-NSB value is set to 0% inhibition.
% inhibition values were obtained at a defined compound concentration, e.g. at 1 μM, % inhibition of the test compound was calculated by the formula 100−((B−NSB)*100/(Bo−NSB)). % inhibition values above 100% are founded by assay variance.
A general note: Loss of bound radioactivity is the signal in a displacement assay; it reports binding, not function.

Where [1] appears, read: Table 1, compounds of formula Ia″.
Setting [2] is: Table 2, compounds of formula Ib″.

Sequence of human CRTH2 receptor (Q9Y5Y4 whole entry): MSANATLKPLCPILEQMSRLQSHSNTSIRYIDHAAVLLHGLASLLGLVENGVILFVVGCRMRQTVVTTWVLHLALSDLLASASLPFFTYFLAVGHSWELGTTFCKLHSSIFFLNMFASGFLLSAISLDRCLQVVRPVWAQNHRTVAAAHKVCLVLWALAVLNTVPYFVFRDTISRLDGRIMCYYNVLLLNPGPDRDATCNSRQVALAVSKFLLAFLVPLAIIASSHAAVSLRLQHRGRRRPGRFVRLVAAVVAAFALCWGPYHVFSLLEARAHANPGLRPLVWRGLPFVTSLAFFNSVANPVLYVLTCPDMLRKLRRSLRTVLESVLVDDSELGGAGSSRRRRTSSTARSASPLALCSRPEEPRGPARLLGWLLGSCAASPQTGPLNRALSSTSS

`CCCn1c(C(=O)Nc2ccc(Cn3nc(C)c(CC(=O)O)c3C)c(F)c2)cc2cc(F)ccc21` [Compound 54] gave a Ki under setting [1] of 0.2 nM.
For `Cc1nn(Cc2ccc(NC(=O)c3oc4c(F)cccc4c3C)cc2F)c(C)c1CC(=O)O` [Compound 50], under setting [1], the Ki was 0.4 nM.
Under setting [1], `CCCn1c(C(=O)Nc2ccc(Cn3nc(C)c(CC(=O)O)c3C)c(F)c2)cc2ccc(F)cc21` [Compound 42] had a Ki of 0.1 nM. This Ki lies about 4-fold lower than the previous one.
Molecule `CCn1c(C(=O)Nc2ccc(Cn3nc(C)c(CC(=O)O)c3C)cc2)cc2ccccc21` [Compound 17] came in with a Ki under setting [1] of 0.4 nM.
On to `COCc1c(C(=O)Nc2ccc(Cn3nc(C)c(CC(=O)O)c3C)c(F)c2)oc2ccccc12` [Compound 43], for which the affinity under setting [1], expressed as Ki, was 2.3 nM. This Ki lies about 5.7-fold higher than the previous one.
`Cc1nn(Cc2ccc(NC(=O)c3cc4ccc(F)cc4[nH]3)cc2)c(C)c1CC(=O)O` [Compound 11] came in with an inhibition constant Ki under setting [1] of 0.2 nM.
Same read-out and setting: with `CCn1c(C(=O)Nc2ccc(Cn3nc(C)c(CC(=O)O)c3C)c(F)c2)cc2c(F)cccc21` [Compound 40] the figure was 0.4 nM; with `Cc1nn(Cc2ccc(NC(=O)c3cc4ccc(Cl)cc4o3)cc2)c(C)c1CC(=O)O` [Compound 36], 0.2 nM; with `Cc1nn(Cc2ccc(NC(=O)c3cc4cc(Cl)ccc4o3)cc2)c(C)c1CC(=O)O` [Compound 8], 0.3 nM.
Under setting [1], `Cc1nn(Cc2ccc(NC(=O)c3cc4ccccc4s3)cc2)c(C)c1CC(=O)O` [Compound 15] returned a Ki of 0.3 nM.
Same read-out and setting: with `CCc1nn(Cc2ccc(NC(=O)c3cc4cc(F)ccc4[nH]3)cc2)c(CC)c1CC(=O)O` [Compound 23] the figure was 0.3 nM; with `CCn1c(C(=O)Nc2ccc(Cn3nc(C)c(CC(=O)O)c3C)c(F)c2)cc2ccc(F)cc21` [Compound 41], 0.1 nM; with `CCc1nn(Cc2ccc(NC(=O)c3cc4cc(Cl)ccc4o3)cc2)c(CC)c1CC(=O)O` [Compound 19], 0.2 nM.
For `Cc1nn(Cc2ccc(NC(=O)c3cc4ccccc4n3C)cc2)c(C)c1CC(=O)O` [Compound 16], the Ki under setting [1] was 0.8 nM.
In turn, `Cc1nn(Cc2ccc(NC(=O)c3c[nH]c4ccccc34)cc2)c(C)c1CC(=O)O` [Compound 58] showed a Ki under setting [2] of 37.2 nM.
As for `Cc1nn(Cc2ccc(NC(=O)c3cc4ccccc4n3Cc3ccccc3)cc2)c(C)c1CC(=O)O` [Compound 18], the Ki under setting [1] is under 0.1 nM.
The molecule `CCCn1c(C(=O)Nc2ccc(Cn3nc(C)c(CC(=O)O)c3C)c(F)c2)cc2ccccc21` [Compound 56] came in with a Ki under setting [1] of 0.2 nM.
As for `CCn1c(C(=O)Nc2ccc(Cn3nc(C)c(CC(=O)O)c3C)c(F)c2)cc2ccccc21` [Compound 31], the affinity under setting [1], expressed as Ki, was 0.2 nM.
On the same count and under the same terms, with `Cc1nn(Cc2ccc(NC(=O)c3sc4ccc(F)cc4c3C)cc2F)c(C)c1CC(=O)O` [Compound 46] the figure was 4.5 nM; with `Cc1nn(Cc2ccc(NC(=O)c3oc4c(F)cccc4c3C)cc2)c(C)c1CC(=O)O` [Compound 7], 1.3 nM.
The molecule `CCc1c(C(=O)Nc2ccc(Cn3nc(C)c(CC(=O)O)c3C)cc2)oc2c(F)cccc12` [Compound 34] registered a Ki under setting [1] of 0.3 nM. This Ki lies about 4.3-fold lower than the previous one.
Consider `Cc1nn(Cc2ccc(NC(=O)c3cc4ccccc4[nH]3)cc2Cl)c(C)c1CC(=O)O` [Compound 2], for which the Ki under setting [1] came out at 0.5 nM.
Consider `Cc1nn(Cc2ccc(NC(=O)c3cc4ccccc4o3)cc2Cl)c(C)c1CC(=O)O` [Compound 5], for which, under setting [1], the Ki was 0.8 nM.
Consider `CCc1nn(Cc2ccc(NC(=O)c3cc4ccccc4n3CC)cc2)c(CC)c1CC(=O)O` [Compound 22], for which the Ki under setting [1] turned out to be 0.2 nM.
As to `CCc1c(C(=O)Nc2ccc(Cn3nc(C)c(CC(=O)O)c3C)c(F)c2)oc2ccc(F)cc12` [Compound 47], under setting [1], the Ki is 0.9 nM.
`CCn1c(C(=O)Nc2ccc(Cn3nc(C)c(CC(=O)O)c3C)cc2)cc2ccc(F)cc21` [Compound 29] had a Ki under setting [1] of 0.1 nM.
In the case of `CCc1nn(Cc2ccc(NC(=O)c3c(C)c4ccccc4n3C)cc2)c(CC)c1CC(=O)O` [Compound 24], affinity under setting [1] was put at a Ki of 9.9 nM. This Ki lies about 99-fold higher than the previous one.
The same measure, in the same setting: with `Cc1nn(Cc2ccc(NC(=O)c3cc4cc(F)ccc4[nH]3)cc2)c(C)c1CC(=O)O` [Compound 12] the figure was 0.2 nM; with `CCCn1c(C(=O)Nc2ccc(Cn3nc(C)c(CC(=O)O)c3C)cc2)cc2ccc(F)cc21` [Compound 28], 0.1 nM.
`Cc1nn(Cc2ccc(NC(=O)c3cc4ccccc4n3C)cc2F)c(C)c1CC(=O)O` [Compound 30]: the Ki under setting [1] was determined as 1 nM. Against the preceding molecule, the Ki is about 10-fold higher.
Same read-out and setting: then `CCCc1c(C(=O)Nc2ccc(Cn3nc(C)c(CC(=O)O)c3C)c(F)c2)oc2ccc(F)cc12` [Compound 52], with 0.7 nM; and `Cc1nn(Cc2ccc(NC(=O)c3cc4cc(F)ccc4n3C)cc2F)c(C)c1CC(=O)O` [Compound 51], with 0.4 nM.
Regarding `Cc1nn(Cc2ccc(NC(=O)c3oc4c(Cl)cccc4c3C)cc2F)c(C)c1CC(=O)O` [Compound 37], the Ki under setting [1] came out at 2.2 nM.
Under setting [1], `CCc1nn(Cc2ccc(NC(=O)c3cc4ccc(F)cc4[nH]3)cc2)c(CC)c1CC(=O)O` [Compound 25] yielded a Ki of 0.2 nM.
The same measure, in the same setting: with `CCc1nn(Cc2ccc(NC(=O)c3cc4ccccc4[nH]3)cc2)c(CC)c1CC(=O)O` [Compound 20] the figure was 0.3 nM; with `Cc1nn(Cc2ccc(NC(=O)c3oc4ccc(Cl)cc4c3C)cc2F)c(C)c1CC(=O)O` [Compound 44], 0.3 nM; with `Cc1nn(Cc2ccc(NC(=O)c3cc4ccccc4n3Cc3ccccc3)cc2F)c(C)c1CC(=O)O` [Compound 3], 0.2 nM.
Turning to `Cc1nn(Cc2ccc(NC(=O)c3coc4ccccc34)cc2)c(C)c1CC(=O)O` [Compound 57], under setting [2], the Ki came to 8.8 nM. This counts as single-digit nanomolar.
Consider `Cc1nn(Cc2ccc(NC(=O)c3cc4ccccc4[nH]3)cc2)c(C)c1CC(=O)O` [Compound 10], for which the Ki under setting [1] turned out to be 0.2 nM.
`CCCCn1c(C(=O)Nc2ccc(Cn3nc(C)c(CC(=O)O)c3C)c(F)c2)cc2cc(F)ccc21` [Compound 55] displayed a Ki under setting [1] of 0.1 nM.
For `COc1cccc2cc(C(=O)Nc3ccc(Cn4nc(C)c(CC(=O)O)c4C)cc3)oc12` [Compound 9], the Ki under setting [1] was 1.2 nM. Compared with the last molecule, the Ki is about 12-fold higher.
In turn, `CCCCn1c(C(=O)Nc2ccc(Cn3nc(C)c(CC(=O)O)c3C)c(F)c2)cc2ccccc21` [Compound 53] displayed a Ki under setting [1] of 0.2 nM. This Ki is about 6-fold lower than that of the molecule before.
With `COc1ccc2oc(C(=O)Nc3ccc(Cn4nc(C)c(CC(=O)O)c4C)cc3)cc2c1` [Compound 6], the Ki under setting [1] is 0.6 nM. Against the preceding molecule, the Ki is about 3-fold higher.
Take `COc1ccc2oc(C(=O)Nc3ccc(Cn4nc(C)c(CC(=O)O)c4C)c(F)c3)c(C)c2c1` [Compound 49]: the Ki under setting [1] was 0.1 nM.
The same measure, in the same setting: with `Cc1nn(Cc2ccc(NC(=O)c3oc4c(Cl)cccc4c3C)cc2)c(C)c1CC(=O)O` [Compound 33, (1-(4-[(7-Chloro-3-methylbenzofuran-2-carbonyl)amino]benzyl)-3,5-dimethyl-1H-pyrazol-4-yl)acetic acid] the figure was 2.2 nM; with `Cc1nn(Cc2ccc(NC(=O)c3c(C)c4ccccc4n3C)cc2)c(C)c1CC(=O)O` [Compound 13], 63.9 nM; with `COc1ccc2[nH]c(C(=O)Nc3ccc(Cn4nc(C)c(CC(=O)O)c4C)cc3)c(C)c2c1` [Compound 14], 0.1 nM.
`CCc1nn(Cc2ccc(NC(=O)c3cc4ccccc4n3C)cc2)c(CC)c1CC(=O)O` [Compound 21]: the affinity under setting [1], expressed as Ki, was 0.3 nM.
Under setting [2], `Cc1nn(Cc2ccc(NC(=O)c3csc4ccccc34)cc2)c(C)c1CC(=O)O` [Compound 59] had a Ki of 3.8 nM.
As for `CCc1c(C(=O)Nc2ccc(Cn3nc(C)c(CC(=O)O)c3C)cc2)oc2c(F)cc(F)cc12` [Compound 35], under setting [1], the Ki turned out to be 0.3 nM. This counts as sub-nanomolar.
For `Cc1nn(Cc2ccc(NC(=O)c3cc4ccc(Cl)cc4o3)cc2F)c(C)c1CC(=O)O` [Compound 39], the affinity under setting [1], expressed as Ki, was 0.4 nM.

For orientation: Ki means a dissociation constant, usually derived from enzyme kinetics or from competition with a known ligand. Read a high Ki as lower affinity.
